Experiments:
[1] = system: normal NK cells expanded with K562-aAPC; test: drug sensitivity score (DSS) (DSS units); higher = more sensitive; extreme values may be limits of the assay; details: 72 h; IL-2 2.5 ng/mL
Protocol: (§1)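 Drug sensitivity and resistance testing on K562-aAPC-expanded normal NK cells: 5 concentrations (10-fold steps over a 10,000-fold range), 72 h at 37 °C, viability by CellTiter-Glo normalised to DMSO and benzethonium chloride controls; DSS from the fitted curve.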

KAI3 (IL-2 2.5 ng/mL) [2] = test: percent inhibition of viability; higher = more inhibition; details: 72 h
IMC-1 (IL-2 20 ng/mL) [3] = test: as above; details: 72 h
KHYG-1 (IL-2 2.5 ng/mL) [4] = test: as above; details: 72 h
DERL-7 (IL-2 2.5 ng/mL) [5] = test: as above; details: 72 h
[6] = system: normal primary NK cells, pool 1 (3 donors) (IL-2 2.5 ng/mL); test: as above; details: 72 h
NK-92 (IL-2 2.5 ng/mL) [7] = test: as above; details: 72 h
NKL (IL-2 2.5 ng/mL) [8] = test: as above; details: 72 h
YT (IL-2 2.5 ng/mL) [9] = test: as above; details: 72 h
[10] = system: normal primary NK cells, pool 3 (3 donors) (IL-2 2.5 ng/mL); test: as above; details: 72 h
SNK-6 (IL-2 2.5 ng/mL) [11] = test: as above; details: 72 h
[12] = system: normal primary NK cells, pool 1 (3 donors), resting (IL-2 0 ng/mL); test: as above; details: 72 h
[13] = system: normal primary NK cells, pool 2 (3 donors) (IL-2 2.5 ng/mL); test: as above; details: 72 h
NK-YS (IL-2 2.5 ng/mL) [14] = test: as above; details: 72 h
KAI3 (IL-2 2.5 ng/mL) [15] = test: drug sensitivity score (DSS) (DSS units); higher = more sensitive; extreme values may be limits of the assay; details: 72 h
IMC-1 (IL-2 20 ng/mL) [16] = test: as above; details: 72 h
KHYG-1 (IL-2 2.5 ng/mL) [17] = test: as above; details: 72 h
DERL-7 (IL-2 2.5 ng/mL) [18] = test: as above; details: 72 h
[19] = system: normal primary NK cells, pool 1 (3 donors) (IL-2 2.5 ng/mL); test: as above; details: 72 h
NK-92 (IL-2 2.5 ng/mL) [20] = test: as above; details: 72 h
NKL (IL-2 2.5 ng/mL) [21] = test: as above; details: 72 h
YT (IL-2 2.5 ng/mL) [22] = test: as above; details: 72 h
[23] = system: normal primary NK cells, pool 3 (3 donors) (IL-2 2.5 ng/mL); test: as above; details: 72 h
SNK-6 (IL-2 2.5 ng/mL) [24] = test: as above; details: 72 h
[25] = system: normal primary NK cells, pool 1 (3 donors), resting (IL-2 0 ng/mL); test: as above; details: 72 h
[26] = system: normal primary NK cells, pool 2 (3 donors) (IL-2 2.5 ng/mL); test: as above; details: 72 h
NK-YS (IL-2 2.5 ng/mL) [27] = test: as above; details: 72 h
[28] = system: normal NK cells expanded with K562-aAPC; test: percent inhibition of viability; higher = more inhibition; details: 72 h, IL-2 2.5 ng/mL
Protocol: as §1

O=C(Nc1ccc2[nH]nc(-c3ccncc3)c2c1)[C@@H]1CCN(CC(=O)N2CCN(c3ccc(-c4ncccn4)cc3)CC2)C1 (max concentration tested 10000 nM)
Details	drug sensitivity score
DERL-7 (IL-2 2.5 ng/mL) [18]	10.3
IMC-1 (IL-2 20 ng/mL) [16]	0
KAI3 (IL-2 2.5 ng/mL) [15]	5.52
KHYG-1 (IL-2 2.5 ng/mL) [17]	9.89
NK-92 (IL-2 2.5 ng/mL) [20]	0.01
NK-YS (IL-2 2.5 ng/mL) [27]	3.58
NKL (IL-2 2.5 ng/mL) [21]	10.9
SNK-6 (IL-2 2.5 ng/mL) [24]	0.08
YT (IL-2 2.5 ng/mL) [22]	1.87
[1]	1.01
[19]	4.28
[23]	0.32
[25]	5.24
[26]	0.76

percent inhibition of viability [%]
Details	1 nM	10 nM	100 nM	1000 nM	10000 nM
DERL-7 (IL-2 2.5 ng/mL) [5]	-1.39	5.53	18	42.9	66.6
IMC-1 (IL-2 20 ng/mL) [3]	-5.11	-10.7	-8.77	-10.1	-4.64
KAI3 (IL-2 2.5 ng/mL) [2]	-4.48	5.51	14.6	21	46.9
KHYG-1 (IL-2 2.5 ng/mL) [4]	-2.48	-2.2	5.59	45.6	78.9
NK-92 (IL-2 2.5 ng/mL) [7]	-6.06	-9.07	-16.6	-32.5	12.5
NK-YS (IL-2 2.5 ng/mL) [14]	-4.51	-0.3	-0.1	9.9	40.6
NKL (IL-2 2.5 ng/mL) [8]	-19.4	-14.6	3.59	55.7	71.8
SNK-6 (IL-2 2.5 ng/mL) [11]	-4.99	4.31	5.1	-34.4	15.8
YT (IL-2 2.5 ng/mL) [9]	-0.05	-0.51	-3.3	9.81	22.2
[6]	-5.21	-6.91	-5.12	11.2	47.8
[10]	-13.2	-18.2	-22.8	-10.8	20
[12]	4.46	-7.38	-1.31	12.8	58.7
[13]	-6.14	-5.45	0.32	5.74	15.6
[28]	2.7	-4.22	-5.95	2.93	20.3

CC(=O)N(O)CCCCCNC(=O)CCC(=O)N(O)CCCCCNC(=O)CCC(=O)N(O)CCCCCN [Deferoxamine] (max concentration tested 10000 nM)
Details	drug sensitivity score
IMC-1 (IL-2 20 ng/mL) [16]	5.37
[1]	8.23
[23]	4.59
[26]	3.84

percent inhibition of viability [%]
Details	1 nM	10 nM	100 nM	1000 nM	10000 nM
IMC-1 (IL-2 20 ng/mL) [3]	-6.25	-3.2	-4.14	-0.7	97.2
[10]	-1.79	6.03	10.4	16.1	53.2
[13]	-2.8	5.46	3.49	11.1	42.7
[28]	-3.82	-8.67	-5.64	22.8	86.1

CCN(CC)CCCC(C)Nc1c2ccc(Cl)cc2nc2ccc(OC)cc12 (configuration not stated) [Mepacrine] (max concentration tested 50000 nM)
Details	drug sensitivity score
IMC-1 (IL-2 20 ng/mL) [16]	18.2
[1]	17.6
[23]	18.1
[26]	19.4

percent inhibition of viability [%]
Details	5 nM	50 nM	500 nM	5000 nM	50000 nM
IMC-1 (IL-2 20 ng/mL) [3]	-0.62	-1.1	2.08	100	101
[10]	-11.7	0.46	1.96	98.8	101
[13]	-13.9	-3.31	9.39	98	101
[28]	-2.84	-3.46	-4.79	100	101

CN(C)C(=O)c1cc2cnc(Nc3ccc(N4CCNCC4)cn3)nc2n1C1CCCC1 [NVP-LEE011] (max concentration tested 10000 nM)
percent inhibition of viability [%]
Details	DERL-7 (IL-2 2.5 ng/mL) [5]	KAI3 (IL-2 2.5 ng/mL) [2]	KHYG-1 (IL-2 2.5 ng/mL) [4]	NK-92 (IL-2 2.5 ng/mL) [7]	NK-YS (IL-2 2.5 ng/mL) [14]	NKL (IL-2 2.5 ng/mL) [8]	SNK-6 (IL-2 2.5 ng/mL) [11]	YT (IL-2 2.5 ng/mL) [9]	[6]	[12]
1 nM	-3.18	-3.87	-4.23	-9.54	-2.35	-12.3	-8.9	-3.41	4.32	7.64
10 nM	4.13	1.07	0.91	-16.1	-0.02	-11.2	3.64	-2.71	8.46	12.1
100 nM	1.76	-4.85	-1.06	-4.22	5.18	-15	-2.64	-0.92	8.7	17.7
1000 nM	11.2	4.66	37.5	15.8	22.1	-6.48	12.5	9.6	6.05	14.8
10000 nM	41.6	29.2	81.3	20.8	48	47.9	19.8	42.3	51.8	51.6

Details	drug sensitivity score
DERL-7 (IL-2 2.5 ng/mL) [18]	3.81
KAI3 (IL-2 2.5 ng/mL) [15]	2
KHYG-1 (IL-2 2.5 ng/mL) [17]	9.33
NK-92 (IL-2 2.5 ng/mL) [20]	2.18
NK-YS (IL-2 2.5 ng/mL) [27]	4.9
NKL (IL-2 2.5 ng/mL) [21]	2.07
SNK-6 (IL-2 2.5 ng/mL) [24]	1.78
YT (IL-2 2.5 ng/mL) [22]	3.67
[19]	3.77
[25]	6.2

Reference: the supplement of paper PMC5908809
